Data: patent publication US4701465A, “N-acylpyrrolidine derivative and synthesis and use thereof” (Suntory Limited, priority 1985, dated 1987)

The compounds below were run against prolyl endopeptidase (Elizabethkingia meningoseptica, UniProt P27028) (assay: Measurement of anti-prolyl endopeptidase activity). Conditions: substrate Z-glycyl-proline-β-naphthylamide, 0.1M phosphate buffer pH 7.06, absorbance at 410 nm.
Type: biochemical
Method: The method of Yoshimoto and Tsuru (T. Yoshimoto and D. Tsuru, Agr. Biol. Chem. 42, 2417, 1978) was used to measure the anti-prolyl endopeptidase activities of compounds of the present invention. A mixture of 0.0025M Z-glycyl-proline-β-naphthylamide (0.25 ml), 0.1M phosphate buffer (pH, 7.06; 0.99 ml) and a solution of a particular anti-prolyl endopeptidase compound (0.01 ml) was incubated in a test tube at 37° C. for 3 minutes. Thereafter, 0.1 ml of a solution of prolyl endopeptidase (0.2 U/ml) was added and the mixture was heated at 35° C. for 10 minutes. After the reaction, 2.0 ml of Triton X-100 in 1M acetate buffer (pH, 4.0) was added to the reaction mixture until the final concentration of the surfactant was 10%. The mixture was left at room temperature for 15 minutes and the absorbance (a) at 410 nm was measured.
A sample for a blind test was prepared by using the buffer instead of the anti-prolyl endopeptidase compound and its absorbance (b) was also measured. The percent inhibition of prolyl endopeptidase was calculated by the formula: ((b-a)/b)×100, and the amount of a specific compound to achieve 50% inhibition IC50) was determined.

Chain of prolyl endopeptidase (P27028 21-705): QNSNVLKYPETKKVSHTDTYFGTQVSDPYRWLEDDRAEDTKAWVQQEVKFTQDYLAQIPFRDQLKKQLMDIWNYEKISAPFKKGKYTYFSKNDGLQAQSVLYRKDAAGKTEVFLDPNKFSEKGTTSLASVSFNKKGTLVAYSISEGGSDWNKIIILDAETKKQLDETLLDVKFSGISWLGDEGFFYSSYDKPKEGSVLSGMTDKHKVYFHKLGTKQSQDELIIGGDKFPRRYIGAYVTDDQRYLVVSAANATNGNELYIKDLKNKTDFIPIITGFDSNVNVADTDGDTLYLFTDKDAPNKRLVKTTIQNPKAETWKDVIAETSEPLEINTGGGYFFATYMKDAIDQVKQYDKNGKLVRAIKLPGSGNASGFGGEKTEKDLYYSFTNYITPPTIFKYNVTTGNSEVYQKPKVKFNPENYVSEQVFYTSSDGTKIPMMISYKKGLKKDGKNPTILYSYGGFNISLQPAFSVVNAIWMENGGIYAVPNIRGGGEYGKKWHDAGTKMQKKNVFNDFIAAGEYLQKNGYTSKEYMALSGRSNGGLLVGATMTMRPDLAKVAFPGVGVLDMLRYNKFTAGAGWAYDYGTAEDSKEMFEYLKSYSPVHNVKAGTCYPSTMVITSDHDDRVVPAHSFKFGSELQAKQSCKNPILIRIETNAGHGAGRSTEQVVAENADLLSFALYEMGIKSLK

First: COc1ccc(CC(=O)N2CCCC2C=O)cc1 (centres unmarked) [compound 7]
Second: COc1ccc(CCC(=O)N2CCCC2C=O)cc1 (centres unmarked) [compound 8]
The “IC50 (amount of compound to achieve 50% inhibition of prolyl endopeptidase)” value of the first is higher: 3.0 μg/test tube for the first, 1.0 μg/test tube for the second.

Compared with `COC(=O)C1CCCN1C(=O)Cc1ccc(OC)cc1` (centres unmarked) [Compound No. 1], `COC(=O)C1CCCN1C(=O)CCc1ccc(OC)cc1` (centres unmarked) [Compound No. 2] is lower in “IC50 (amount of compound to achieve 50% inhibition of prolyl endopeptidase)” value: 80 μg/test tube for the first, 51 μg/test tube for the second.

First: O=CC1CCCN1C(=O)CCOc1ccccc1 (centres unmarked) [Compound No. 21, N-(3-phenoxy)propionyl-prolinal]
Second: COC(=O)[C@@H]1CCCN1C(=O)CCOc1ccccc1 [Compound No. 19, N-(3-phenoxy)propionyl-proline methyl ester]
The “IC50 (amount of compound to achieve 50% inhibition of prolyl endopeptidase)” value of the first is lower: 2.5 μg/test tube for the first, 60 μg/test tube for the second.

First: COc1ccc(/C=C/C(=O)N2CCCC2C=O)cc1 (centres unmarked) [compound 39]
Second: COC(=O)C1CCCN1C(=O)/C=C/c1ccc(OC)cc1 (centres unmarked) [compound 37]
The “IC50 (amount of compound to achieve 50% inhibition of prolyl endopeptidase)” value of the first is lower: 0.2 μg/test tube for the first, 80 μg/test tube for the second.

First: COc1ccc(CCCC(=O)N2CCCC2C=O)cc1 (centres unmarked) [compound 9]
Second: O=CC1CCCN1C(=O)CCCc1ccc(Cl)cc1 (centres unmarked) [compound 18]
The “IC50 (amount of compound to achieve 50% inhibition of prolyl endopeptidase)” value of the first is lower: 0.05 μg/test tube for the first, 1.5 μg/test tube for the second.

Compared with `COC(=O)C1CCCN1C(=O)CCc1ccc(Cl)cc1` (centres unmarked) [compound 11], `COC(=O)C1CCCN1C(=O)CCCc1ccc(Cl)cc1` (centres unmarked) [compound 12] is higher in “IC50 (amount of compound to achieve 50% inhibition of prolyl endopeptidase)” value: 30 μg/test tube for the first, 50 μg/test tube for the second.

Going from `CC(CCc1ccccc1)C(=O)N1CCCC1C=O` (centres unmarked) [compound 36] to `COC(=O)C1CCCN1C(=O)C(C)CCc1ccccc1` (centres unmarked) [compound 34], the “IC50 (amount of compound to achieve 50% inhibition of prolyl endopeptidase)” value rises from 1.0 μg/test tube to 80 μg/test tube.

Going from `CCC(C(=O)N1CCCC1C(=O)OC)c1ccccc1` (centres unmarked) [compound 25] to `CCC(C(=O)N1CCCC1C=O)c1ccccc1` (centres unmarked) [compound 27], the “IC50 (amount of compound to achieve 50% inhibition of prolyl endopeptidase)” value falls from 510 μg/test tube to 0.2 μg/test tube.

Compared with `O=CC1CCCN1C(=O)CCC(c1ccccc1)c1ccccc1` (centres unmarked) [compound 42], `O=CC1CCCN1C(=O)CC(c1ccccc1)c1ccccc1` (centres unmarked) [compound 24] is lower in “IC50 (amount of compound to achieve 50% inhibition of prolyl endopeptidase)” value: 0.35 μg/test tube for the first, 0.1 μg/test tube for the second.

Compared with `COC(=O)C1CCCN1C(=O)CC(c1ccccc1)c1ccccc1` (centres unmarked) [compound 22], `COC(=O)C1CCCN1C(=O)CCC(=O)c1ccccc1` (centres unmarked) [compound 28] is lower in “IC50 (amount of compound to achieve 50% inhibition of prolyl endopeptidase)” value: 250 μg/test tube for the first, 200 μg/test tube for the second.

Going from `COC(=O)C1CCCN1C(=O)CCCc1ccc(OC)cc1` (centres unmarked) [compound 3] to `COC(=O)C1CCCN1C(=O)Cc1ccc(Cl)cc1` (centres unmarked) [compound 10], the “IC50 (amount of compound to achieve 50% inhibition of prolyl endopeptidase)” value falls from 180 μg/test tube to 72 μg/test tube.

First: O=CC1CCCN1C(=O)CCc1ccc(Cl)cc1 (centres unmarked) [compound 17]
Second: O=CC1CCCN1C(=O)Cc1ccc(Cl)cc1 (centres unmarked) [compound 16]
The “IC50 (amount of compound to achieve 50% inhibition of prolyl endopeptidase)” value of the first is higher: 1.0 μg/test tube for the first, 0.5 μg/test tube for the second.

`O=CC1CCCN1C(=O)CCC(=O)c1ccccc1` (centres unmarked) [compound 30] was tested, and the “IC50 (amount of compound to achieve 50% inhibition of prolyl endopeptidase)” value was 0.1 μg/test tube.

In the case of `CC(C)C(CCc1ccccc1)C(=O)N1CCCC1C=O` (centres unmarked) [compound 33], the “IC50 (amount of compound to achieve 50% inhibition of prolyl endopeptidase)” value is reported as > 5 μg/test tube.
`COC(=O)C1CCCN1C(=O)C(CCc1ccccc1)C(C)C` (centres unmarked) [compound 31] was tested, and the “IC50 (amount of compound to achieve 50% inhibition of prolyl endopeptidase)” value was > 200 μg/test tube.

What follows are compounds tested on experimental amnesia caused in rats by scopolamine (assay: Preventive effect against experimental amnesia caused in rats by scopolamine (passive avoidance learning, intraperitoneal administration)). Conditions: 1 mg/kg i.p.; rats.
Type: in vivo, Wister male rats
Method: Several of the anti-prolyl endopeptidase compounds of the present invention were checked for their ability to prevent the inhibition of long-term memory fixation by scopolamine. Solutions of physiological saline that contained selected compounds of the present inventions in an amount of 1 mg/kg were administered intraperitoneally to Wister male rats (100-120 g). One hour after the administration, electric shocks were applied to the rats so that they would acquire passive avoidance learning. Immediately thereafter, scopolamine was administered intraperitoneally to each rat in an amount of 3 mg per kg of body weight.
The result of the test was assessed both 24 hours and 48 hours after the administration of scopolamine. The number of amnesic rats and of sound rats was counted for both the control group (rats which were not given the test compounds but to which scopolamine and physiological saline alone were administered intraperitoneally) and the treated group (rats to which both the test compound and scopolamine were administered).

In the case of `O=CC1CCCN1C(=O)CC(c1ccccc1)c1ccccc1` (centres unmarked) [SUAM1065], the “preventive effect against scopolamine amnesia (in words)” value (shortened to “preventive effect”) is reported as “particularly remarkable effects”.
For `COc1ccc(CCCC(=O)N2CCCC2C=O)cc1` (centres unmarked) [SUAM1051], the “preventive effect” value was “particularly remarkable effects”.
In the case of `O=CC1CCCN1C(=O)CCC(=O)c1ccccc1` (centres unmarked) [SUAM1055], the “preventive effect” value is reported as “particularly remarkable effects”.

Same assay, conditions: 1 mg/kg i.p.; scopolamine 3 mg/kg i.p. after learning

With `O=CC1CCCN1C(=O)CC(c1ccccc1)c1ccccc1` (centres unmarked) [SUAM1065] the “No. of amnesic rats/No. of rats tested” value was 1/10.
With `COc1ccc(CCC(=O)N2CCCC2C=O)cc1` (centres unmarked) [SUAM1050] the “No. of amnesic rats/No. of rats tested” value was 5/10.
With `COc1ccc(CCCC(=O)N2CCCC2C=O)cc1` (centres unmarked) [SUAM1051] the “No. of amnesic rats/No. of rats tested” value was 0/10.
With `O=CC1CCCN1C(=O)Cc1ccc(Cl)cc1` (centres unmarked) [SUAM1052] the “No. of amnesic rats/No. of rats tested” value was 3/10.
In the case of `O=CC1CCCN1C(=O)CCC(=O)c1ccccc1` (centres unmarked) [SUAM1055], the “No. of amnesic rats/No. of rats tested” value is reported as 0/10.
`CCC(C(=O)N1CCCC1C=O)c1ccccc1` (centres unmarked) [SUAM1066] was tested, and the “No. of amnesic rats/No. of rats tested” value was 3/10.
With `O=CC1CCCN1C(=O)CCC(c1ccccc1)c1ccccc1` (centres unmarked) [SUAM1090] the “No. of amnesic rats/No. of rats tested” value was 4/10.
For `COc1ccc(/C=C/C(=O)N2CCCC2C=O)cc1` (centres unmarked) [SUAM1054], the “No. of amnesic rats/No. of rats tested” value was 5/10.

Compared with `O=CC1CCCN1C(=O)CC(c1ccccc1)c1ccccc1` (centres unmarked) [SUAM1065], `O=CC1CCCN1C(=O)CCC(c1ccccc1)c1ccccc1` (centres unmarked) [SUAM1090] is higher in percentage amnesia: 10% for the first, 40% for the second.

Going from `COc1ccc(CCC(=O)N2CCCC2C=O)cc1` (centres unmarked) [SUAM1050] to `COc1ccc(CCCC(=O)N2CCCC2C=O)cc1` (centres unmarked) [SUAM1051], the percentage amnesia falls from 50% to 0%.

Compared with `O=CC1CCCN1C(=O)Cc1ccc(Cl)cc1` (centres unmarked) [SUAM1052], `COc1ccc(/C=C/C(=O)N2CCCC2C=O)cc1` (centres unmarked) [SUAM1054] is higher in percentage amnesia: 30% for the first, 50% for the second.

Going from `O=CC1CCCN1C(=O)CCC(=O)c1ccccc1` (centres unmarked) [SUAM1055] to `CCC(C(=O)N1CCCC1C=O)c1ccccc1` (centres unmarked) [SUAM1066], the percentage amnesia rises from 0% to 30%.

Same assay, conditions: 1 mg/kg i.p.; scopolamine 3 mg/kg i.p. after learning; 24 hrs. later

Going from `O=CC1CCCN1C(=O)CC(c1ccccc1)c1ccccc1` (centres unmarked) [SUAM1065] to `O=CC1CCCN1C(=O)CCC(c1ccccc1)c1ccccc1` (centres unmarked) [SUAM1090], the “Avoidance time 24 hrs. later” value falls from 284.6 s to 232.8 s.

Going from `COc1ccc(CCC(=O)N2CCCC2C=O)cc1` (centres unmarked) [SUAM1050] to `COc1ccc(CCCC(=O)N2CCCC2C=O)cc1` (centres unmarked) [SUAM1051], the “Avoidance time 24 hrs. later” value rises from 198.2 s to 300.0 s.

Going from `O=CC1CCCN1C(=O)Cc1ccc(Cl)cc1` (centres unmarked) [SUAM1052] to `COc1ccc(/C=C/C(=O)N2CCCC2C=O)cc1` (centres unmarked) [SUAM1054], the “Avoidance time 24 hrs. later” value falls from 223.1 s to 204.5 s.

Going from `O=CC1CCCN1C(=O)CCC(=O)c1ccccc1` (centres unmarked) [SUAM1055] to `CCC(C(=O)N1CCCC1C=O)c1ccccc1` (centres unmarked) [SUAM1066], the “Avoidance time 24 hrs. later” value falls from 300.0 s to 268.4 s.

Same assay, conditions: 1 mg/kg i.p.; scopolamine 3 mg/kg i.p. after learning; 48 hrs. later

Compared with `O=CC1CCCN1C(=O)CC(c1ccccc1)c1ccccc1` (centres unmarked) [SUAM1065], `O=CC1CCCN1C(=O)CCC(c1ccccc1)c1ccccc1` (centres unmarked) [SUAM1090] is lower in “Avoidance time 48 hrs. later” value: 267.2 s for the first, 202.36 s for the second.

First: COc1ccc(CCC(=O)N2CCCC2C=O)cc1 (centres unmarked) [SUAM1050]
Second: COc1ccc(CCCC(=O)N2CCCC2C=O)cc1 (centres unmarked) [SUAM1051]
The “Avoidance time 48 hrs. later” value of the first is lower: 203.5 s for the first, 300.0 s for the second.

First: O=CC1CCCN1C(=O)Cc1ccc(Cl)cc1 (centres unmarked) [SUAM1052]
Second: COc1ccc(/C=C/C(=O)N2CCCC2C=O)cc1 (centres unmarked) [SUAM1054]
The “Avoidance time 48 hrs. later” value of the first is higher: 214.8 s for the first, 199.7 s for the second.

First: O=CC1CCCN1C(=O)CCC(=O)c1ccccc1 (centres unmarked) [SUAM1055]
Second: CCC(C(=O)N1CCCC1C=O)c1ccccc1 (centres unmarked) [SUAM1066]
The “Avoidance time 48 hrs. later” value of the first is higher: 300.0 s for the first, 205.4 s for the second.
